From a melting point compilation (Tetko et al.; mined from patent text by program, amines drawn as free bases though some values may be those of a salt)

Row | Compound | melting point [°C]
1 | COC(=O)NC1CCc2sc(C3=NNC(=O)CC3)cc2C1 (centres undefined) | 205 to 206
2 | COc1cc(C)ccc1OCCCN1CCC(C(O)(c2ccc(F)cc2)c2ccc(F)cc2)CC1 | 121 to 122
3 | COc1cccc(Cc2n[nH]c3c2c(=O)n(-c2ccccc2)c2ncccc32)c1 | 234 to 236
4 | CCCCCCCCCCCCOC(=O)c1ccc2cc(O)ccc2c1 | 103 to 104
5 | COc1ccc(S(=O)(=O)N2CCc3cccc(-c4ccc(F)nc4)c32)cc1 | 140 to 142
6 | NC(=O)[C@@H]1[C@H](Nc2c(Br)cnc3[nH]c(-c4ccccc4-n4cccn4)nc23)[C@H]2C=C[C@@H]1C2 | 120
7 | COc1cccc(N)c1C(=O)NC1CCN(C(C)CC(C(=O)N(C)C)(c2ccccc2)c2ccccc2)CC1O (centres undefined) | 175
8 | CCC(=O)Nc1c(C)c(C)c2c(c1C)CC(C)(C)O2 | 146
9 | COc1ccc2c3c(cn2S(=O)(=O)c2c(C(C)C)cc(C(C)C)cc2C(C)C)C[C@H]2N(C)C(=O)CO[C@]2(C)c13 (relative stereo) | 155 to 157
10 | Nc1sc2c(c1C(=O)c1ccc(I)cc1)CCN(C(=O)Nc1ccccc1)C2 | 89 to 90
11 | O=C1NC2(C(=O)O)CC3CC1C2C3 (centres undefined) | 298 to 300
12 | Cc1ccnc(N2CCN(CCCCC3Sc4ccccc4NC3=S)CC2)c1 (centres undefined) | 119
13 | CC(C)(C)C(NC(=O)c1ccccc1)NC(=S)Nc1cccnc1 (centres undefined) | 193 to 194
14 | O=C1c2cc3nn[nH]c(=O)c3cc2OC2CCCN12 (centres undefined) | 253
15 | CCCN1C(=O)N2CCN=C2c2[nH]c(C3CCCC3)nc21 | 215 to 216
16 | CS(=O)(=O)N(Cc1cccnc1)c1ccc(C#N)cc1 | 73 to 75
17 | Cc1ccc(S(=O)(=O)OC[C@H]2COc3cc(F)c4c(c3O2)CC(=O)N4)cc1 | 205 to 206
18 | CC(C)c1nn(-c2ccccn2)c(-c2ccc(F)cc2)c1/C=C/CO | 106 to 109
19 | O=C1NC(=O)c2c1cc1ccc3c(c1c2-c1ccc(Br)cc1)OCO3 | 324 to 327
20 | CC(=CC=Cc1ccccc1)C(=O)C1OCC(C)(C)CO1 | 122 to 125
21 | COC(=O)c1[nH]c2c(C)ccc(Cl)c2c1C(C)=O | 167 to 168
22 | CC(C)CCSc1cc(C(=O)O)cc(N=Nc2cc(C(=O)O)cc(SCCC(C)C)c2C(=O)c2ccccc2)c1C(=O)c1ccccc1 | 143 to 144

Row | Compound | melting point [°C]
23 | Nc1ccc(-c2cccs2)c(C(=O)Nc2ccc3c(c2)CCC3)c1 | 62 to 67
24 | CC1(C)OC(=O)C(=CSCc2cccs2)C(=O)O1 | 109 to 111
25 | COC(=O)C1(OC)CC(O)C(NC(C)=O)C(C(O)C(O)CO)O1 (centres undefined) | 161 to 167
26 | CC(=O)Nc1ccc2c(c1)OC(C)(C)C=C2 | 80 to 81
27 | Nc1c(CC(=O)O)cccc1C(=O)c1ccc(F)cc1 | 136 to 137
28 | COc1cccc2nc(-c3ccc(C)cc3)cc(OCC(=O)N3CCOCC3)c12 | 132
29 | CCCCCC[C@H](C)Oc1ccc(-c2ccc(OC(=O)c3ccccc3)cc2)cc1 | 84
30 | O=C1CCC(N2C(=O)c3cccc(CNC(=O)c4ccc(C(F)(F)F)c(F)c4)c3C2=O)C(=O)N1 (centres undefined) | 165 to 167
31 | CCNC(=O)COC1CCN(Cc2cnc3cc(NC(=O)c4ccc(-c5ccc(F)cc5)cc4)ccc3c2)CC1 | 228 to 230
32 | FC(F)(c1ccccc1)C(F)(F)c1ccccc1CBr | 70 to 77
33 | CCOC(=O)C1CC2CC(=O)CCC2CN1C(=O)OC (centres undefined) | 79 to 80
34 | COc1ccc(S(=O)(=O)Nc2cc(C(F)(F)F)ccc2Oc2ccccc2C(=O)O)cc1 | 139
35 | O=C(c1ccc(Br)cc1)c1ccc([N+](=O)[O-])cc1 | 123 to 124
36 | OC(COc1ccc(-n2cncn2)cc1)CN1CCN(c2ccc(F)cc2)CC1 (centres undefined) | 149 to 150
37 | CC(C)(C)C(=O)OC(COc1cccc2[nH]ccc12)CN1CCC(COc2ccccc2)CC1 (centres undefined) | 103 to 105
38 | Cc1cc(OCC(O)CNC(C)C)c2cc(C(=O)N(C)C)[nH]c2c1 (centres undefined) | 169 to 171
39 | CC(C)(C)OC(=O)CSC(NCc1ccccc1)=C1C(=O)CCCC1=O | 142 to 143
40 | CCOC(=O)c1c(NC23CC4CC(CC(C4)C2)C3)n[nH]c1C | 190 to 203
41 | CCOC(=O)Cc1cccc2c(-c3ccc(N(C)C)cc3)nccc12 | 132 to 135
42 | O=C1CCC(N2Cc3c(CNC(=O)c4ccccc4)cccc3C2=O)C(=O)N1 (centres undefined) | 228 to 230
43 | COc1ccc(C(O)(c2ccc3c(c2)C(c2cccc(Cl)c2)Nc2nnnn2-3)c2cncn2C)cc1 (centres undefined) | 220
44 | CCCCn1c(=O)c2[nH]cnc2n(CCCC)c1=O | 166 to 169

Row | Compound | melting point [°C]
45 | COc1cc(C)cc(OC)c1CCCCCNC(=O)[C@@H](CCCCNC(=O)C=Cc1ccccc1)NC(=O)c1cc2ccccc2n1CC(=O)O | 172
46 | CNC(=O)N1CCC(C(Nc2ccc(F)cc2)c2ccc(F)cc2)CC1 (centres undefined) | 86 to 90
47 | CC(C(N)=O)c1ccc2c(c1)CCc1ccccc1S2 (centres undefined) | 135 to 136
48 | CNC(=O)[C@H]1CN(c2cc(F)c(N3CCOCC3)c(F)c2)C(=O)O1 | 179 to 181
49 | C#CCn1nc(-c2ccc(F)cc2)c(-c2ccc(S(C)(=O)=O)cc2)cc1=O | 168 to 169
50 | NC(=O)C1CCn2c(cc3ccccc32)C1 (centres undefined) | 165 to 168
51 | OCc1ccc(OCCCCCCCCCCC2c3c(c4ccccc4c4ccccc34)-c3c2c2ccccc2c2ccccc32)cc1 | 64 to 66
52 | c1ccc(-c2cn3cnnc3cn2)cc1 | 231 to 233
53 | CN(Cc1coc(C=Cc2ccc(C(F)(F)F)cc2)n1)c1ccc(CCCCn2ccnn2)cc1 | 112 to 114
54 | Nc1cc(=O)n(CCC2=CCCCC2)c(=O)n1CCC1=CCCCC1 | 172 to 174
55 | COc1ccc(C(CCCCCCC(=O)O)=NOCc2ccc(OCc3nc(-c4ccccc4)oc3C)cc2)cc1 | 69 to 70
56 | CCOc1ccc(Br)c(O)c1C(=O)NCC1CCCN1CC (centres undefined) | 74 to 76
57 | COC(=O)C1=C(c2ccc(OC)cc2)C(c2ccc(OC)cc2)OC1=O (centres undefined) | 107 to 109
58 | CON=C(C(=O)OC)C1=C(C(=O)c2ccc(F)cc2)CC(C)=C(C)C1 | 97 to 98
59 | COC(=O)c1ccc([C@H]2CCN(C(=O)OC(C)(C)C)C[C@@H]2O)cc1 (racemic) | 146
60 | N#CC1=C(C2CCC2)Nc2n[nH]cc2C1c1ccccc1Cl (centres undefined) | 188
61 | Nc1cc(C(=O)O)cc(S(N)(=O)=O)c1Oc1ccc(OCc2ccccc2)cc1 | 264 to 265
62 | Cc1ccc(S(=O)(=O)n2cc(C[C@H]3CCCN3C)c3cc(Br)ccc32)cc1 | 98 to 104
63 | CC(C)(C)OC(=O)N1CCN(c2cncc(Cl)n2)CC1 | 108
64 | COc1ccc(C(=O)CN(C)C(=O)/C=C/c2cccnc2)cc1OC | 193 to 194

Next, values leading:

Row | melting point [°C] | Compound
65 | 195 | COc1ccc(S(=O)(=O)N(CC(N)=O)c2ccc(Cl)cc2Cc2c(Cl)cccc2Cl)cc1OC
66 | 138 to 140 | CCOC(=O)c1cc(-c2ccccc2)nc2c([N+](=O)[O-])cccc12
67 | 187 to 189 | CC1CC(=O)NN=C1c1ccc2c(c1)CCN2 (centres undefined)
68 | 284 to 285 | COc1ccc2nc3ccc(C#N)cn3c(=O)c2c1
69 | 177 to 179 | O=C(O)c1sc(-c2ccc(C(F)(F)F)cc2)nc1C(F)(F)F
70 | 184 to 185 | CCOC(=O)c1cc2ccc(C)c(NS(=O)(=O)c3cccs3)c2[nH]1
71 | 219 | C=CCOc1cc(-c2cc(=O)c3c(O)cc(O)cc3o2)ccc1OC
72 | 173 | NNc1nccc(-c2ccc(OC3CCOCC3)c(Cl)c2)c1Cl
73 | 189 to 190 | CCOc1ccc(C(=O)Nc2ccccc2)cc1[N+](=O)[O-]
74 | > 285 | O=C(O)c1ccc2nc3ccc(C(=O)O)nn3c(=O)c2c1
75 | 157 to 158 | O=S(=O)(NCCCCOc1ccc(-n2ccnc2)cc1)c1ccc2ccccc2c1
76 | 75 to 76 | CCNc1nc(NC2CC2)cc(SC)n1
77 | 240 | c1ccc2c(c1)c(-c1cc3nccnc3[nH]1)cn2CCCN1CCCCC1
78 | 183 to 184 | NC(=O)CNC(=O)c1cccc(-c2ccc3c(n2)N(Cc2ccc(Cl)cc2Cl)CC3)c1
79 | 145 to 147 | CCCc1c(C(=O)OCC)nc2c(CCC)c3oc(C(=O)OCC)cc(=O)c3cc2c1Cl
80 | 141 to 142 | CCOC(=O)C1CCc2c([nH]c3ccc(Cl)cc23)C1 (centres undefined)
81 | 141 to 143 | CCN(CC)CCNC(=O)c1cc(I)cc2c(=O)cc[nH]c12
82 | 78 to 79 | C=CCNc1nc(NCC=C)c2cc(Cl)ccc2n1

Row | melting point [°C] | Compound
83 | 120 | Nc1ccc(N2CCN(c3ccc(OCC(O)(Cn4cncn4)c4ccc(Cl)cc4Cl)cc3)CC2)cc1 (centres undefined)
84 | 114 to 116 | COc1ccc(C(=O)CC(C)(C)C(=O)O)cc1OC
85 | 160 to 162 | CCOC(=O)C1=C(COCc2nnn(CCNc3cc(Cl)ncn3)n2)NC(C)=C(C(=O)OC)C1c1cccc(Cl)c1Cl (centres undefined)
86 | 231 to 232 | N#CCn1c2ccccc2c2nc3ccccc3nc21
87 | 73 to 74 | CCN(CC)c1nc(C#N)c(C#N)nc1Cc1ccccc1
88 | 160 to 162 | C[C@@]1(F)[C@H](OC(=O)c2ccccc2)[C@@H](COC(=O)c2ccccc2)O[C@H]1n1cnc2c(Cl)nc(N)nc21
89 | 266 | Cc1nc(-c2ccccc2)c(C)c(O)c1C(=O)Nc1nccs1
90 | 92 to 94 | CCOC(=O)Cc1cc(Cl)cc(C(=O)c2ccc(Br)cc2)c1N
91 | 105 to 106 | C=CCN(C(=O)NC(C)(C)C)c1nc(NC(=O)NC(C)(C)C)c2cc([N+](=O)[O-])ccc2n1
92 | 63 to 64 | CC(=O)c1ccc(-c2ccc(F)cc2F)c(Cl)c1
93 | 202 to 204 | O=C(O)c1ccccc1-c1nc(-c2ccc(Cl)c(Cl)c2)no1
94 | 183 to 184 | Oc1ccc2c(c1)Cc1cc(Br)ccc1-2
95 | 135 | CSc1ccc(-c2nn(CC3CC3)c(=S)cc2-c2ccc(Cl)cc2)cc1
96 | 244 to 245 | O=c1[nH]ccc2c1ccc1cc[nH]c12
97 | 126 to 129 | CCSCCC(=O)NNC(=O)N1Cc2ccccc2Oc2ccc(Cl)cc21
98 | 140 to 143 | CCC(=O)NCCC1=CCc2cc(F)c(OC)cc21
99 | 120 | Nc1ccc(F)c(SC(F)(F)F)c1
